Key:
[1] = Transdermal delivery of conjugate to microporated rat skin, conjugate level in plasma by sandwich ELISA; type: in vivo, Male CD Hairless rats; details: rats; for Intact conjugate present in the blood stream as a function of time: after application to microporated skin, blood draws over 2-3 hour period; for Transdermal delivery of the peptide conjugate: applied to microporated skin relative to intact skin, occluded
Description: The γV5 peptide RLVLAS (SEQ ID NO: 43) with an […] (Ac) end cap was attached by a GG linker to a TAT carrier peptide (SEQ ID NO: 46) and then the C-terminus was amidated (NH2) to form a conjugate identified as SEQ ID NO: 49. Transdermal delivery of this conjugate was performed as described in Example 1 except that a 1 cm^2 solid polymer microneedle array was used to microporate the skin and an aqueous reservoir patch was used to contact a 10% aqueous formulation of the conjugate with the microporated skin. Results are shown in FIG. 3, where the amount of conjugate in the blood, in ng/mL, is shown as a function of time.

[2] = microporated vs intact rat skin; 30 μm planar skin sections (FIG. 1A)
Description: Male CD Hairless rats were weighed (range: 300-500 grams) and anesthetized by inhaled isoflurane. The rats remained under anesthesia for the duration of the experiment and were sacrificed after the last blood draw. Rats were cannulated at a femoral or jugular vein for blood draws. A derma roller with 1.0 or 1.5 mm microneedles (Moohan Dr. Roller) was rolled across a 1 cm^2 area of skin on the dorsal trunk or waist by passing the roller over the skin 5 times with moderate pressure. Fifty μL of the cPKC inhibitor peptide [sequence] (SEQ ID NO:13) attached to a TAT carrier peptide to form the conjugate peptide identified as SEQ ID NO: 14 at 1% to 10% (10 to 100 mg/mL) was applied to the microporated skin and occluded with a 1 cm^2 piece of saran wrap. […] As a control, rats with intact skin (i.e., rats not subjected to the microneedle array) were also treated with the same peptide conjugate.
To analyze levels of the εPKC inhibitor peptide [sequence] (SEQ ID NO:13) in plasma, both ELISA on planar skin sections and a sandwich ELISA that uses antibodies that recognize different portions of the conjugate (the εPKC inhibitor peptide and the TAT carrier peptide) were employed.

Molecule | Intact conjugate present in the blood stream as a function of time [1] | Transdermal delivery of the peptide conjugate [1] | Penetration of the peptide conjugate through the stratum corneum and into the underlying skin [2]
CC[C@H](C)[C@H](NC(=O)[C@@H]1CCCN1C(=O)[C@H](C)NC(=O)[C@H](CC(=O)O)NC(=O)[C@H](Cc1c[nH]cn1)NC(C)=O)C(=O)NCC(=O)N[C@@H](Cc1ccc(O)cc1)C(=O)N[C@@H](CC(=O)O)C(=O)NCCCCCC(=O)N[C@@H](Cc1ccc(O)cc1)C(=O)NCC(=O)N[C@@H](CCCNC(=N)N)C(=O)N[C@@H](CCCCN)C(=O)N[C@@H](CCCCN)C(=O)N[C@@H](CCCNC(=N)N)C(=O)N[C@@H](CCCNC(=N)N)C(=O)N[C@@H](CCC(N)=O)C(=O)N[C@@H](CCCNC(=N)N)C(=O)N[C@@H](CCCNC(=N)N)C(=O)N[C@@H](CCCNC(=N)N)C(N)=O [SEQ ID NO: 19, AC-HDAPIGYD-AHX-YGRKKRRQRRR-NH2] | in an increasing amount with time | enhanced | –
Ac-EAVSLKPTGGYGRKKRRQRRR-NH2 [SEQ ID NO: 14, Ac-EAVSLKPT GG YGRKKRRQRRR-NH2] | in an increasing amount with time | significantly enhanced | increased penetration

Source: US20100311671A1, “TRANSDERMAL DELIVERY OF PKC MODULATORY PEPTIDES THROUGH MI[…]” (Kai Pharmaceuticals, priority 2009, published 2010)
